In patent US20080188469A1, “VACCINATION” (Glaxo Group Limited, priority 2002, published 2008):

Test system: antigen specific cytokine producing cells in splenocytes
Assay: Imiquimod given with particle-mediated DNA vaccination (pVAC1.ova.cyt) of mice; cytokine producing splenocytes by ELISPOT
Assay type: in vivo, C57B1/6 mice
Settings: imiquimod 30 mg/kg, single subcutaneous injection at the immunisation site, immediately following vaccination
Method: To examine whether the timing of imiquimod administration could affect the numbers of antigen specific cytokine producing cells in splenocytes pVAC1.ova.cyt (prepared according to example 1) was administered by particle mediated gene transfer (0.05 μg/cartridge) into the skin of mice.
If given, immediately following vaccination imiquimod (prepared as a suspension in vehicle which comprised 0.3% (w/v) methylcellulose and 0.1% (v/v) Tween in sterile water) was administered by a single subcutaneous injection (0.05 ml/10 g body weight formulated to provide a dose of 30 mg/kg)) at the immunisation site. Plasmid and imiquimod controls were empty vector (pVAC1) and vehicle, respectively.
All mice received pVAC1. ova.cyt or empty vehicle pVAC1 at day 0 and week 4. One group of mice received imiquimod at day 0 only (Im prime), a second group of mice received imiquimod at week 4 only (Im boost) and another group received imiquimod at day 0 and week 4 (Im pr+boost).
At day 12 spl enocytes were collected and IFN-γ and IL-2 producing cells were measured by ELISPOT.

## CC(C)Cn1cnc2c(N)nc3ccccc3c21 [Imiquimod, imiquimod]
  Magnitude of the cytotoxic T cell response to a nucleic acid vaccine: Increases the Magnitude of the Cytotoxic T Cell Response
